The source of these data is patent publication US20160272617A1, “SUBSTITUTED PHENYLALANINE DERIVATIVES” (BAYER PHARMA AKTIENGESELLSCHAFT, priority 2013, published 2016).

The test system of assay [1] is human and animal plasma. Kind of assay: Determination of anticoagulatory activity: activated partial thromboplastin time (aPTT) in plasma. The note with it: concentration of test substance which brings about a 1.5-fold extension of the aPTT; plasma species not given. The protocol: The anticoagulatory activity of the test substances is determined in vitro in human and animal plasma (for example mouse, rat, rabbit, pig and dog plasma). To this end, blood is drawn off in a mixing ratio of sodium citrate/blood of 1:9 using a 0.11 molar sodium citrate solution as receiver. Immediately after the blood has been drawn off, it is mixed thoroughly and centrifuged at about 4000 g for 15 minutes. The supernatant is pipetted off.
The activated partial thromboolastin time (aPTT) is determined in the presence of varying concentrations of test substance or the corresponding solvent using a commercial test kit (C. K. Prest from Diagnostica Stago). The test compounds are incubated with the plasma and the PTT reagent (cephalin, kaolin) at 37° C. for 3 minutes. Coagulation is then started by addition of a 25 mM aqueous calcium chloride solution, and the time when coagulation occurs is determined. The concentration of test substance which brings about a 1.5-fold extension of the aPTT is determined.

Assay [2] has as its target T1, human factor XIa (Homo sapiens, UniProt P03951).
T1 construct: purchased Kordia
Kind of assay: Measurement of FXIa inhibition (fluorogenic peptide substrate Boc-Glu(OBzl)-Ala-Arg-AMC). Format: biochemical. To be noted: factor XIa from Kordia, 15 min preincubation, 30 min at 22° C., fluorescence. Here is the method:
The factor XIa inhibition of the inventive substances is determined using a biochemical test system which utilizes the reaction of a peptidic factor XIa substrate to determine the enzymatic activity of human factor XIa. Here, factor XIa cleaves from the peptic factor XIa substrate the C-terminal aminomethylcoumarin (AMC), the fluorescence of which is measured. The determinations are carried out in microtitre plates.
Test substances are dissolved in dimethyl sulphoxide and serially diluted in dimethyl sulphoxide (3000 μM to 0.0078 μM; resulting final concentrations in the test: 50 μM to 0.00013 μM). In each case 1 μl of the diluted substance solutions is placed into the wells of white microtitre plates from Greiner (384 wells). Subsequently, the following are added successively: 20 μl of assay buffer (50 mmol/l Tris buffer pH 7.4; 100 mmol/l sodium chloride; 5 mmol/l calcium chloride; 0.1% bovine serum albumin) and 20 μl of factor XIa from Kordia (0.45 nM in assay buffer). After 15 min of incubation, the enzyme reaction is started by addition of 20 μl of the factor XIa substrate Boc-Glu(OBzl)-Ala-Arg-AMC dissolved in assay buffer (10 μM in assay buffer) from Bachem, the mixture is incubated at room temperature (22° C.) for 30 min and fluorescence is then measured (excitation: 360 nm, emission: 460 nm). The measured emissions of the test mixtures with test substance are compared to those of control mixtures without test substance (only dimethyl sulphoxide instead of test substance in dimethyl sulphoxide), and the IC50 values are calculated from the concentration/activity relationships.

Molecules are shown by their SMILES. Structures can show the parent of a compound that is named as a salt.

T1 sequence (P03951 388-625 limits assumed): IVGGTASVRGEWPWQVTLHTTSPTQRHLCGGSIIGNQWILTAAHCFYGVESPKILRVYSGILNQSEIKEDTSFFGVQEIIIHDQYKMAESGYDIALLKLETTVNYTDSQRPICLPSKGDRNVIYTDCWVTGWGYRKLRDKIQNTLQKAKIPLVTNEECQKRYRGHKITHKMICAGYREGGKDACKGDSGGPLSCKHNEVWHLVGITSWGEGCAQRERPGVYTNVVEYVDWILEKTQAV
T1 sequence (P03951 19-387 partner limits assumed): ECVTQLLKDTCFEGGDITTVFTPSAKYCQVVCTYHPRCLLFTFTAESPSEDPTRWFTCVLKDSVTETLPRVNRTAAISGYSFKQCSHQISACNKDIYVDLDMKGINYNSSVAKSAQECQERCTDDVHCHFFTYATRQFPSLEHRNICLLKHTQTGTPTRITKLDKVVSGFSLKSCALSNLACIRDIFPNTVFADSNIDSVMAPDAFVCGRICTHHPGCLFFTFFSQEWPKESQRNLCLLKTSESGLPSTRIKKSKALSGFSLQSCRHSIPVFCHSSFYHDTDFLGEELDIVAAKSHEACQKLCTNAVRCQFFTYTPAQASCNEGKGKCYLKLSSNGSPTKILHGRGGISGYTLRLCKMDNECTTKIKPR

One may read the IC50 as the concentration that gives 50% inhibition. Regarding `NC[C@H]1CC[C@H](C(=O)N[C@@H](Cc2ccc(-c3ccc(C(=O)N[C@H]4CCNC4)cc3Cl)cc2)C(=O)Nc2ccc(-c3nn[nH]n3)cc2)CC1` [Example 13, 4′-[(2S)-2-({[trans-4-(Aminomethyl)cyclohexyl]carbonyl}amino)-3-oxo-3-{[4-(2H-tetrazol-5-yl)phenyl]amino}propyl]-2-chloro-N-[(3S)-pyrrolidin-3-yl]biphenyl-4-carboxamide hydrochloride], the “aPTT” value in assay [1] came to 0.44 µmol/L. For the same compound, the IC50 in assay [2] stood at 4.2 nM.
In the same order, the values of `COCCOCCOCCOCCNC(=O)c1ccc(-c2ccc(C[C@H](NC(=O)[C@H]3CC[C@H](CN)CC3)C(=O)Nc3ccc(-c4nn[nH]n4)cc3)cc2)c(Cl)c1` [Example 26, 4′-[(2S)-2-({[trans-4-(Aminomethyl)cyclohexyl]carbonyl}amino)-3-oxo-3-{[4-(2H-tetrazol-5-yl)phenyl]amino}propyl]-2-chloro-N-(2,5,8, 11-tetraoxatridecan-13-yl)biphenyl-4-carboxamide hydrochloride] are 0.19 µmol/L and 2.4 nM.
As for `Cc1cc(C(=O)NC2CCNCC2)ccc1-c1ccc(C[C@H](NC(=O)[C@H]2CC[C@H](CN)CC2)C(=O)Nc2ccc(-c3nc(C(F)(F)C(F)(F)C(=O)N(C)C)n[nH]3)cc2)cc1` [Example 126, 4′-{(2S)-2-({[trans-4-(Aminomethyl)cyclohexyl]carbonyl}amino)-3-[(4-{3-[3-(dimethylamino)-1,1,2,2-tetrafluoro-3-oxopropyl]-1H-1,2,4-triazol-5-yl}phenyl)amino]-3-oxopropyl}-2-methyl-N-(piperidin-4-yl)biphenyl-4-carboxamide hydrochloride], in assay [1], the “aPTT” value stood at 0.14 µmol/L. This compound registered a 50% inhibitory concentration (IC50) in assay [2] of 1.6 nM.
As for `Cc1cc(C(=O)N[C@@H]2CCNC2=O)ccc1-c1ccc(C[C@H](NC(=O)[C@H]2CC[C@H](CN)CC2)C(=O)Nc2ccc3cn[nH]c3c2)cc1` [Example 145, 4′-[(2S)-2-({[trans-4-(Aminomethyl)cyclohexyl]carbonyl}amino)-3-(1H-indazol-6-ylamino)-3-oxopropyl]-2-methyl-N-[(3R)-2-oxopyrrolidin-3-yl]biphenyl-4-carboxamide hydrochloride], the “aPTT” value in assay [1] worked out at 0.07 µmol/L. In addition, in assay [2], the IC50 was 3.2 nM.
The like results for `Cc1cc(C(=O)NCC(=O)N2CCC(N(C)C)CC2)ccc1-c1ccc(C[C@H](NC(=O)[C@H]2CC[C@H](CN)CC2)C(=O)Nc2ccc(-c3nnc(C(F)(F)C(F)(F)C(=O)O)[nH]3)cc2)cc1` [Example 114, 3-{5-[4-({(2S)-2-({[trans-4-(Aminomethyl)cyclohexyl]carbonyl}amino)-3-[4′-{(2-[4-(dimethylamino)piperidin-1-yl]-2-oxoethyl}carbamoyl)-2′-methylbiphenyl-4-yl]propanoyl}-amino)phenyl]-4H-1,2,4-triazol-3-yl}-2,2,3,3-tetrafluoropropanoic acid hydrochloride] were, in that order, 0.14 µmol/L and 2.6 nM.
The like results for `Cc1cc(C(=O)NC2CCNCC2)ccc1-c1ccc(C[C@H](NC(=O)[C@H]2CC[C@H](CN)CC2)C(=O)Nc2ccc(-c3nn[nH]n3)cc2)cc1` [Example 36, 4′-[(2S)-2-({[trans-4-(Aminomethyl)cyclohexyl]carbonyl}amino)-3-oxo-3-{[4-(2H-tetrazol-5-yl)phenyl]amino}propyl]-2-methyl-N-(piperidin-4-yl)biphenyl-4-carboxamide] were, in that order, 0.07 µmol/L and 1.7 nM.
Take `Cc1cc(C(=O)NC2CCN(C)CC2)ccc1-c1ccc(C[C@H](NC(=O)[C@H]2CC[C@H](CN)CC2)C(=O)Nc2ccc(-c3nn[nH]n3)cc2)cc1` [Example 42, 4′-[(2S)-2-({[trans-4-(Aminomethyl)cyclohexyl]carbonyl}amino)-3-oxo-3-{[4-(2H-tetrazol-5-yl)phenyl]amino}propyl]-2-methyl-N-(1-methylpiperidin-4-yl)biphenyl-4-carboxamide hydrochloride]: the “aPTT” value in assay [1] is 0.1 µmol/L. In assay [2], this compound gave an IC50 of 3.6 nM.
As for `Cc1cc(C(=O)NC2CCN(C(C)C)CC2)ccc1-c1ccc(C[C@H](NC(=O)[C@H]2CC[C@H](CN)CC2)C(=O)Nc2ccc(-c3nn[nH]n3)cc2)cc1` [Example 40, 4′-[(2S)-2-({[trans-4-(Aminomethyl)cyclohexyl]carbonyl}amino)-3-oxo-3-{[4-(2H-tetrazol-5-yl)phenyl]amino}propyl]-N-(1-isopropylpiperidin-4-yl)-2-methylbiphenyl-4-carboxamide hydrochloride], the “aPTT” value in assay [1] is 0.11 µmol/L. Besides, in assay [2], the midpoint of inhibition, the IC50, lay at 3.6 nM.
In the same order, the values of `Cc1cc(C(=O)NC2CCNCC2)ccc1-c1ccc(C[C@H](NC(=O)[C@H]2CC[C@H](CN)CC2)C(=O)Nc2ccc3[nH]c(C(F)(F)C(F)(F)C(F)(F)C(=O)O)nc3c2)cc1` [Example 65, 4-[5-({(2S)-2-({[trans-4-(Aminomethyl)cyclohexyl]carbonyl}amino)-3-[2′-methyl-4′-(piperidin-4-ylcarbamoyl)biphenyl-4-yl]propanoyl}amino)-1H-benzimidazol-2-yl]-2,2,3,3,4,4-hexafluorobutanoic acid hydrochloride] are 0.48 µmol/L and 26 nM.
`Cc1cc(C(=O)N(C)C2CCN(C)CC2)ccc1-c1ccc(C[C@H](NC(=O)[C@H]2CC[C@H](CN)CC2)C(=O)Nc2ccc(-c3nnc(C(F)(F)C(F)(F)C(=O)O)[nH]3)cc2)cc1` [Example 113, 3-[5-(4-{[(2S)-2-({[trans-4-(Aminomethyl)cyclohexyl]carbonyl}amino)-3-{2′-methyl-4′-[methyl(1-methylpiperidin-4-yl)carbamoyl]biphenyl-4-yl}propanoyl]amino}phenyl)-4H-1,2,4-triazol-3-yl]-2,2,3,3-tetrafluoropropanoic acid hydrochloride]: the “aPTT” value in assay [1] stood at 0.07 µmol/L. The compound also gave an IC50 in assay [2] of 4.9 nM.
In the same order, the values of `Cc1cc(C(=O)NCCO)ccc1-c1ccc(C[C@H](NC(=O)[C@H]2CC[C@H](CN)CC2)C(=O)Nc2ccc3cn[nH]c3c2)cc1` [Example 17, 4′-[(2S)-2-({[trans-4-(Aminomethyl)cyclohexyl]carbonyl}amino)-3-(1H-indazol-6-ylamino)-3-oxopropyl]-N-(2-hydroxyethyl)-2-methylbiphenyl-4-carboxamide hydrochloride] are 0.35 µmol/L and 6.1 nM.
Take `Cl.NC[C@H]1CC[C@H](C(=O)N[C@@H](Cc2ccc(-c3ccc(C(=O)NCCN4CCCC4)cc3)cc2)C(=O)Nc2ccc(-c3nnn[nH]3)cc2)CC1` [Example 91, 4′-[(2S)-2-({[trans-4-(Aminomethyl)cyclohexyl]carbonyl}amino)-3-oxo-3-{[4-(1H-tetrazol-5-yl)phenyl]amino}propyl]-N-[2-(pyrrolidin-1-yl)ethyl]biphenyl-4-carboxamide hydrochloride]: in assay [1], the “aPTT” value came to 0.14 µmol/L. Besides, it took 7.2 nM to reach half-maximal inhibition in assay [2] (IC50).
The like results for `CNC1CCC(NC(=O)c2ccc(-c3ccc(C[C@H](NC(=O)[C@H]4CC[C@H](CN)CC4)C(=O)Nc4ccc(-c5nnn[nH]5)cc4)cc3)c(C)c2)CC1` (stereo partly drawn) [Example 147, 4′-[(2S)-2-({[trans-4-(Aminomethyl)cyclohexyl]carbonyl}amino)-3-oxo-3-{[4-(1H-tetrazol-5-yl)phenyl]amino}propyl]-2-methyl-N-[4-(methylamino)cyclohexyl]biphenyl-4-carboxamide hydrochloride] were, in that order, 0.01 µmol/L and 1.7 nM.
